According to PubChem BioAssay (NCI):
Where “and” joins values, the source holds several entries; their conditions need not be identical. Identical values can stand only once.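 Cultured in 96-well plates, cells were exposed to test compound for 48 hours across five concentrations. GI50 is the concentration that inhibits growth by half. TGI is the concentration that stops growth completely.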

system: RXF 393 renal; test: inhibition of tumour cell growth, NCI panel, 48 h

Row | SMILES | TGI | GI50
1 | CC1=N/C(=C\c2cccc([N+](=O)[O-])c2)C(=O)O1 | > 100 µM | 
2 | Cn1c2ccccc2c2c3[nH]c(=O)[nH]c(=O)c3c3c4ccccc4n(C)c3c21 | 5.25 µM | 1.74 µM
3 | CC1(C)N=C(N)N=C(N)N1c1ccc(OCc2ccc(S(=O)(=O)F)c(Cl)c2)c(Cl)c1 | > 100 µM | 18.7 µM
4 | CC(C)c1cc2c(O)c(c1)Cc1cc(C(C)C)cc(c1O)Cc1cc(C(C)C)cc(c1O)Cc1cc(C(C)C)cc(c1O)C2 | > 100 µM | 
5 | COc1ccc(/C=C\c2cc(OC)c(OC)c(OC)c2)cc1OC(=O)NCCN(C)C | < 0.0001 µM | 
6 | CC(C)CCCC(=O)CCCCCCC(=O)CCN(O)C(=O)C(N)CO (stereo not drawn) | 27.4 µM | 
7 | COc1cc2c(c(OC)c1)C1(CC(CC#N)C2)SCCS1 (stereo not drawn) | > 100 µM | 
8 | CCOC(=O)CCn1[nH]c(=O)c(Cl)c(Cl)c1=O | > 100 µM | 
9 | C/C=C1/C(=C/c2[nH]c(/C=c3\[nH]/c(=C/C4=NC(=O)C(CC)=C4C)c(C)c3CCC(=O)O)c(CCC(=O)O)c2C)NC(=O)C1C (stereo not drawn) | > 150 µg/mL | > 150 µg/mL
10 | N#CCc1ccc(C(C#N)/C(CCCC(=O)Nc2cccc([N+](=O)[O-])c2)=N/NC(N)=S)cc1 (stereo not drawn) | > 100 µM | 
11 | COC(C(O)c1ccc2c(c1)OCO2)P(=O)(c1ccccc1)c1ccccc1 (stereo not drawn) | > 100 µM | 
12 | NCCCn1c2c(c3ccc([N+](=O)[O-])cc3c1=O)C(=O)c1cc(Br)ccc1-2 |  | 0.318 µM
13 | CC(C)c1ccc(C(c2ccc(OCC(=O)O)cc2)c2ccc(C(C)C)cc(=O)c2O)c(O)c(=O)c1 | 27.2 µM | 
14 | N#C/C(=C\c1cc2ccccc2c2ccccc12)c1ccccc1 | 18.6 µM | 
15 | COc1ccc2c3c(coc13)C(CCC(=O)O)CC2 (stereo not drawn) | > 100 µM | 
16 | CC(=O)N1C/C(=C\c2ccc(N(C)C)cc2)C(=O)/C(=C/c2ccc(N(C)C)cc2)C1 | > 100 µM | 
17 | CCC(=O)c1c(C(F)(F)F)n([O-])c2ccc(C)cc2[n+]1=O | > 50 µM | 23.4 µM
18 | O=C(O)[C@@H]1CCCCN1Cc1cc2cc3c(cc2c2cc(OCc4ccccc4)ccc12)OCO3 | 22.6 µM | 6.05 µM
19 | COc1ccc(C2SCC(=O)N2NC(=O)Nc2c(C)nc3ccccn23)cc1 (stereo not drawn) | 69.3 µM | 26.4 µM
20 | COC1=CC2(C=CC1=O)c1cc(OC)c(OC)cc1CCN2C(=O)c1ccccc1 (stereo not drawn) | > 100 µM | 
21 | Cc1ccc2[nH]c(C(=O)NN3C(=O)C(C)SC34CCCC(C)C4)c(-c3ccccc3)c2c1 (stereo not drawn) | 84.7 µM | 17.1 µM
22 | Cc1[nH]c2ccccc2c1C1Cc2ccccc2N1C(=O)/C(Cl)=C/c1ccccc1 (stereo not drawn) | 89 µM | 

system: SK-MEL-5 melanoma; test: inhibition of tumour cell growth, NCI panel, 48 h

Row | SMILES | TGI | GI50
23 | COc1ccc(/C(Cl)=C(\C=O)c2ccc([N+](=O)[O-])cc2)cc1 | 39.9 µM | 
24 | C=C(C)C1CCC2(C(=O)O)CCC3(C)C(CCC4C5(C)CCC(OC(=O)NCc6ccccc6)C(C)(C)C5CCC43C)C12 (stereo not drawn) | > 100 µM | 4.82 µM
25 | Cc1ccc(-c2cc(=O)c3cc(C)c(C)c(C(=O)O)c3o2)cc1C | > 100 µM | 
26 | O=C(/C=C/c1c(O)ccc2ccccc12)c1ccccc1 | > 100 µM | 
27 | Cc1nc2ccccc2c(=O)n1-c1ccccc1F | > 100 µM | 
28 | C=C[C@H]1C[C@@H]2C[C@@H]3[C@H]4C/C=C\C(=O)NCCCC5NC(=O)C(=C(O)/C=C/[C@@H]4CC(=O)[C@H]3[C@@H]2[C@H]1C)C5=O (stereo partly drawn) | 0.309 µM | 0.161 µM
29 | CC1=N/C(=C\c2cccc([N+](=O)[O-])c2)C(=O)O1 | > 100 µM | 
30 | CC1(C)N=C(N)N=C(N)N1c1ccc(OCc2ccc(S(=O)(=O)F)c(Cl)c2)c(Cl)c1 | > 100 µM | 1.03 µM
31 | CO[C@H]1C=C[C@@]23c4cc5c(cc4CO[C@]2(O)CN(C)[C@H]3C1)OCO5 | > 100 µM | 
32 | CC(C)N1CN(C(C(=O)N[C@@H]2C(=O)N3C2SC(C)(C)C3C(=O)O)c2ccccc2)CSC1=S (stereo partly drawn) | > 100 µM | 
33 | CC(C)c1cc2c(O)c(c1)Cc1cc(C(C)C)cc(c1O)Cc1cc(C(C)C)cc(c1O)Cc1cc(C(C)C)cc(c1O)C2 | > 100 µM | 
34 | COc1ccc(/C=C\c2cc(OC)c(OC)c(OC)c2)cc1OC(=O)NCCN(C)C | 0.0474 µM | 
35 | CC(C)CCCC(=O)CCCCCCC(=O)CCN(O)C(=O)C(N)CO (stereo not drawn) | 43.7 µM | 
36 | COc1cc2c(c(OC)c1)C1(CC(CC#N)C2)SCCS1 (stereo not drawn) | > 100 µM | 
37 | CCOC(=O)CCn1[nH]c(=O)c(Cl)c(Cl)c1=O | > 100 µM | 
38 | COc1cc2c(c(OC)c1OC)C(=O)[C@@H]1c3ccc([N+](=O)[O-])cc3C(=O)N(CCCBr)[C@H]21 | 27.5 µM | 11 µM
39 | COc1ccc(CNc2nc3cc(C(F)(F)F)ccc3nc2C)cc1OC | 31.3 µM | 
40 | C/C=C1/C(=C/c2[nH]c(/C=c3\[nH]/c(=C/C4=NC(=O)C(CC)=C4C)c(C)c3CCC(=O)O)c(CCC(=O)O)c2C)NC(=O)C1C (stereo not drawn) | > 150 µg/mL | > 150 µg/mL

Row | SMILES | TGI | GI50
41 | COc1cccc(/C=C2\C(=O)N(C(=O)c3ccc(NC(C)=O)cc3)N=C2C)c1 | > 100 µM | 
42 | N#CCc1ccc(C(C#N)/C(CCCC(=O)Nc2cccc([N+](=O)[O-])c2)=N/NC(N)=S)cc1 (stereo not drawn) | > 100 µM | 
43 | COC(C(O)c1ccc2c(c1)OCO2)P(=O)(c1ccccc1)c1ccccc1 (stereo not drawn) | > 100 µM | 
44 | NCCCn1c2c(c3ccc([N+](=O)[O-])cc3c1=O)C(=O)c1cc(Br)ccc1-2 | 0.15 µM and 0.251 µM | 0.0265 µM and 0.0338 µM
45 | CC(C)c1ccc(C(c2ccc(OCC(=O)O)cc2)c2ccc(C(C)C)cc(=O)c2O)c(O)c(=O)c1 | 9.14 µM | 
46 | N#C/C(=C\c1cc2ccccc2c2ccccc12)c1ccccc1 | 19.7 µM | 
47 | CCOc1ccc2c(c1)[n+]([O-])c(-c1nc3ccccc3s1)c(N)[n+]2[O-] | 93.8 µM | 
48 | COc1ccc2c3c(coc13)C(CCC(=O)O)CC2 (stereo not drawn) | > 100 µM | 
49 | COC(=O)C12C3C4C1C1C2C3C41NC(=O)c1csc([C@@H](C[C@H](C(C)C)N(C)C(=O)[C@@H](NC(=O)[C@H]2CCCCN2C)C2CC2)OC(C)=O)n1 (stereo partly drawn) | 0.526 µM | 0.00977 µM
50 | c1cc[c]([Pb]([c]2ccccc2)[c]2ccccc2)cc1 | 32.6 µM | 12.3 µM
51 | CC(=O)N1C/C(=C\c2ccc(N(C)C)cc2)C(=O)/C(=C/c2ccc(N(C)C)cc2)C1 | > 100 µM | 
52 | CCC(=O)c1c(C(F)(F)F)n([O-])c2ccc(C)cc2[n+]1=O | 13.9 µM | 4.33 µM
53 | O=C(O)[C@@H]1CCCCN1Cc1cc2cc3c(cc2c2cc(OCc4ccccc4)ccc12)OCO3 | 3.61 µM | 1.62 µM
54 | COc1ccc(C2SCC(=O)N2NC(=O)Nc2c(C)nc3ccccn23)cc1 (stereo not drawn) | > 100 µM | > 100 µM
55 | COC1=CC2(C=CC1=O)c1cc(OC)c(OC)cc1CCN2C(=O)c1ccccc1 (stereo not drawn) | > 100 µM | 
56 | Cc1ccc2[nH]c(C(=O)NN3C(=O)C(C)SC34CCCC(C)C4)c(-c3ccccc3)c2c1 (stereo not drawn) | > 100 µM | > 100 µM
57 | Cc1[nH]c2ccccc2c1C1Cc2ccccc2N1C(=O)/C(Cl)=C/c1ccccc1 (stereo not drawn) | > 100 µM | 

system: SNB-19 CNS; test: inhibition of tumour cell growth, NCI panel, 48 h

Row | SMILES | TGI | GI50
58 | COc1ccc(/C(Cl)=C(\C=O)c2ccc([N+](=O)[O-])cc2)cc1 | > 31.6 µM | 
59 | C=C(C)C1CCC2(C(=O)O)CCC3(C)C(CCC4C5(C)CCC(OC(=O)NCc6ccccc6)C(C)(C)C5CCC43C)C12 (stereo not drawn) | > 100 µM | 25.3 µM
60 | Cc1ccc(-c2cc(=O)c3cc(C)c(C)c(C(=O)O)c3o2)cc1C | > 100 µM | 
61 | O=C(/C=C/c1c(O)ccc2ccccc12)c1ccccc1 | > 100 µM | 
62 | Cc1nc2ccccc2c(=O)n1-c1ccccc1F | > 100 µM | 
63 | C=C[C@H]1C[C@@H]2C[C@@H]3[C@H]4C/C=C\C(=O)NCCCC5NC(=O)C(=C(O)/C=C/[C@@H]4CC(=O)[C@H]3[C@@H]2[C@H]1C)C5=O (stereo partly drawn) | 1 µM | 0.286 µM
64 | Fc1ccc(C2SCc3nc4ccccc4n32)cc1Cl (stereo not drawn) | > 100 µM | 
65 | CC1=N/C(=C\c2cccc([N+](=O)[O-])c2)C(=O)O1 | > 100 µM | 
66 | Cn1c2ccccc2c2c3[nH]c(=O)[nH]c(=O)c3c3c4ccccc4n(C)c3c21 | 21.4 µM | 3.8 µM
67 | CC1(C)N=C(N)N=C(N)N1c1ccc(OCc2ccc(S(=O)(=O)F)c(Cl)c2)c(Cl)c1 | > 100 µM | 6.76 µM
68 | CO[C@H]1C=C[C@@]23c4cc5c(cc4CO[C@]2(O)CN(C)[C@H]3C1)OCO5 | > 100 µM | 
69 | CC(C)N1CN(C(C(=O)N[C@@H]2C(=O)N3C2SC(C)(C)C3C(=O)O)c2ccccc2)CSC1=S (stereo partly drawn) | > 100 µM | 
70 | CC(C)c1cc2c(O)c(c1)Cc1cc(C(C)C)cc(c1O)Cc1cc(C(C)C)cc(c1O)Cc1cc(C(C)C)cc(c1O)C2 | > 100 µM | 
71 | COc1ccc(/C=C\c2cc(OC)c(OC)c(OC)c2)cc1OC(=O)NCCN(C)C | > 100 µM | 
72 | CCCCOC(=O)NC(=O)c1cn(C2CCCCC2)c(=O)[nH]c1=O | 69.3 µM | 
73 | CC(C)CCCC(=O)CCCCCCC(=O)CCN(O)C(=O)C(N)CO (stereo not drawn) | 48.6 µM | 
74 | COc1cc2c(c(OC)c1)C1(CC(CC#N)C2)SCCS1 (stereo not drawn) | > 100 µM | 
75 | CCOC(=O)CCn1[nH]c(=O)c(Cl)c(Cl)c1=O | > 100 µM | 
76 | COc1cc2c(c(OC)c1OC)C(=O)[C@@H]1c3ccc([N+](=O)[O-])cc3C(=O)N(CCCBr)[C@H]21 | > 100 µM | 22 µM
77 | COc1ccc(CNc2nc3cc(C(F)(F)F)ccc3nc2C)cc1OC | > 100 µM | 
78 | C/C=C1/C(=C/c2[nH]c(/C=c3\[nH]/c(=C/C4=NC(=O)C(CC)=C4C)c(C)c3CCC(=O)O)c(CCC(=O)O)c2C)NC(=O)C1C (stereo not drawn) | > 150 µg/mL | > 150 µg/mL
